Experimental data: patent US4820695A, “C-20-dihydro-deoxy-(cyclic amino)-derivatives of macrolide antibiotics” (priority 1987, dated 1989)
In brackets after ≈: the same amount, converted by molar mass. Like-named read-outs stand apart in the source and are kept apart here.

Experiments:
[1] = tested on: Streptococcus Group D 2041; assay: MIC, standard agar-dilution assay (Table IX); format: cell-based; settings: GROUPD2041, read-out: MIC
[2] = tested on: Streptococcus sp. 19F; assay: MIC, broth-dilution microtiter test (Table X); format: cell-based; settings: read-out: MIC
Source text: (§1) The MIC's in Table X were obtained using conventional broth-dilution microtiter tests.

[3] = tested on: Pasteurella multocida 60A; assay: MIC, broth-dilution microtiter test (Table X); format: cell-based; settings: Avian isolate, read-out: MIC
Source text: as §1

[4] = tested on: Mycoplasma gallisepticum 29C; assay: MIC, broth-dilution microtiter test (Table X); format: cell-based; settings: Mycoplasmoides gallisepticum, read-out: MIC
Source text: as §1

[5] = tested on: Staphylococcus aureus; assay: MIC, broth-dilution microtiter test (Table X); format: cell-based; settings: read-out: MIC
Source text: as §1

[6] = tested on: Pasteurella hemolytica 22C; assay: MIC, broth-dilution microtiter test (Table X); format: cell-based; settings: read-out: MIC
Source text: as §1

[7] = tested on: Pasteurella multocida 17E; assay: MIC, broth-dilution microtiter test (Table X); format: cell-based; settings: Bovine isolate, read-out: MIC
Source text: as §1

[8] = tested on: Mycoplasma synoviae 40A; assay: MIC, broth-dilution microtiter test (Table X); format: cell-based; settings: Mycoplasmopsis synoviae, read-out: MIC
Source text: as §1

[9] = tested on: Mycoplasma hyorhinis 29E; assay: MIC, broth-dilution microtiter test (Table X); format: cell-based; settings: read-out: MIC
Source text: as §1

[10] = tested on: Mycoplasma hyopneumoniae S5972; assay: MIC, broth-dilution microtiter test (Table X); format: cell-based; settings: Mesomycoplasma hyopneumoniae, read-out: MIC
Source text: as §1

[11] = tested on: Staphylococcus epidermidis 222; assay: MIC, standard agar-dilution assay (Table IX); format: cell-based; settings: read-out: MIC
[12] = tested on: Staphylococcus aureus V41; assay: MIC, standard agar-dilution assay (Table IX); format: cell-based; settings: Staphylococcus aureus V41, Penicillin-resistant strain, read-out: MIC
[13] = tested on: Streptococcus pneumoniae Park I; assay: MIC, standard agar-dilution assay (Table IX); format: cell-based
[14] = tested on: Haemophilus influenzae 76; assay: MIC, standard agar-dilution assay (Table IX); format: cell-based; settings: Haemophilus influenzae 76, Ampicillin-resistant strain, read-out: MIC
[15] = tested on: Staphylococcus epidermidis EPI1; assay: MIC, standard agar-dilution assay (Table IX); format: cell-based
[16] = tested on: Streptococcus Group D X66; assay: MIC, standard agar-dilution assay (Table IX); format: cell-based; settings: read-out: MIC
[17] = tested on: Escherichia coli EC14; assay: MIC, standard agar-dilution assay (Table IX); format: cell-based; settings: read-out: MIC
[18] = tested on: Klebsiella X26; assay: MIC, standard agar-dilution assay (Table IX); format: cell-based; settings: read-out: MIC
[19] = tested on: Haemophilus influenzae C.L.; assay: MIC, standard agar-dilution assay (Table IX); format: cell-based; settings: Ampicillin-sensitive strain, read-out: MIC
[20] = tested on: Streptococcus pyogenes C203; assay: MIC, standard agar-dilution assay (Table IX); format: cell-based; settings: read-out: MIC
[21] = tested on: Staphylococcus aureus X400; assay: MIC, standard agar-dilution assay (Table IX); format: cell-based; settings: Staphylococcus aureus X400, Methicillin-resistant strain, read-out: MIC
[22] = Titratable groups in 66% aqueous DMF (Tables XIV-XVI); format: physicochemical
Source text: ^c Run in 66% aqueous DMF
^d Run in 66% aqueous DMF

[23] = tested on: Escherichia coli TEM; assay: MIC, standard agar-dilution assay (Table IX); format: cell-based; settings: read-out: MIC
[24] = tested on: Staphylococcus aureus S13E; assay: MIC, standard agar-dilution assay (Table IX); format: cell-based; settings: Staphylococcus aureus, S13E
[25] = tested on: Staphyloccus aureus X1.1; assay: MIC, standard agar-dilution assay (Table IX); format: cell-based, Staphylococcus aureus; settings: Staphylococcus aureus, read-out: MIC
[26] = tested on: Escherichia coli N10; assay: MIC, standard agar-dilution assay (Table IX); format: cell-based; settings: read-out: MIC
[27] = tested on: Streptococcus pyogenes C203; assay: ED50 in mice experimentally infected with S. pyogenes C203 (Table XI); format: in vivo; settings: Streptococcus pyogenes, doses given 1 and 4 hours postinfection, read-out: ED50
Procedure: The C-20 modified derivatives of this invention have shown in vivo antimicrobial activity against experimentally-induced infections in laboratory animals. When two doses of test compound were administered to mice experimentally infected with S. pyogenes C203, the activity observed was measured as an ED50 value [effective dose in mg/kg to protect 50% of the test animals: see Warren Wick, et al., J. Bacteriol. 81, 233-235 (1961)].
^a mg/kg × 2; doses given 1 and 4 hours postinfection

[28] = Streptococcus pneumoniae Park I, agar-dilution, read-out: MIC
[29] = Staphylococcus epidermidis EPI1, agar-dilution, read-out: MIC
[30] = Titratable groups (first value)

Structure (SMILES)	MIC [1] [µg/mL]	MIC [2] [µg/mL]	MIC [3] [µg/mL]	MIC [4] [µg/mL]	MIC [5] [µg/mL]	MIC [6] [µg/mL]	MIC [7] [µg/mL]	MIC [11] [µg/mL]	MIC [12] [µg/mL]	MIC [14] [µg/mL]	MIC [16] [µg/mL]	MIC [17] [µg/mL]	MIC [18] [µg/mL]	MIC [19] [µg/mL]	MIC [20] [µg/mL]	MIC [21] [µg/mL]	MIC [23] [µg/mL]	MIC [24] [µg/mL]	MIC [25] [µg/mL]	MIC [26] [µg/mL]	other results
CCC1OC(=O)CC(O)C(C)C(OC2OC(C)C(O)C(N(C)C)C2O)C(CCN2CCCC(C(=O)N(CC)CC)C2)CC(C)C(=O)C=CC(C)=CC1COC1OC(C)C(O)C(OC)C1OC (stereo not shown) [Compound D15, 20-DH-DO-20-[3-(N,N-diethylcarbamoyl)piperidin-1-yl]desmycosin]	32 (≈ 34 µM)	12.5 (≈ 13.3 µM)	12.5 (≈ 13.3 µM)	3.12 (≈ 3.32 µM)	6.25 (≈ 6.65 µM)	25 (≈ 26.6 µM)	12.5 (≈ 13.3 µM)	1 (≈ 1.06 µM)	2 (≈ 2.13 µM)	32 (≈ 34 µM)	32 (≈ 34 µM)	> 128	32 (≈ 34 µM)	32 (≈ 34 µM)	0.5 (≈ 0.532 µM)	4 (≈ 4.25 µM)	64 (≈ 68.1 µM)	2 (≈ 2.13 µM)	2 (≈ 2.13 µM)	> 128	MIC [8]: 1.56 µg/mL (≈ 1.66 µM); MIC [9]: > 50 µg/mL; MIC [10]: 3.12 µg/mL (≈ 3.32 µM); MIC [13, 28]: 1 µg/mL (≈ 1.06 µM); MIC [15, 29]: 2 µg/mL (≈ 2.13 µM); pKa ([22]; Titratable groups): 8.6; pKa [22, 30]: 7.4
CCC1OC(=O)CC(O)C(C)C(OC2OC(C)C(O)C(N(C)C)C2O)C(CCN2CCCC(C)(C)C2)CC(C)C(=O)C=CC(C)=CC1COC1OC(C)C(O)C(OC)C1OC (stereo not shown) [Compound D40, 20-DH-DO-20-(3,3-dimethylpiperidin-1-yl)desmycosin]	8 (≈ 9.2 µM)							0.25 (≈ 0.288 µM)	0.5 (≈ 0.575 µM)	8 (≈ 9.2 µM)	4 (≈ 4.6 µM)	64 (≈ 73.6 µM)	16 (≈ 18.4 µM)	4 (≈ 4.6 µM)	0.25 (≈ 0.288 µM)	0.5 (≈ 0.575 µM)	16 (≈ 18.4 µM)	0.5 (≈ 0.575 µM)	0.5 (≈ 0.575 µM)	64 (≈ 73.6 µM)	MIC [13, 28]: 2 µg/mL (≈ 2.3 µM); MIC [15, 29]: 0.5 µg/mL (≈ 0.575 µM)
CCC1OC(=O)CC(O)C(C)C(OC2OC(C)C(O)C(N(C)C)C2O)C(CCN2CCCCCC2)CC(C)C(=O)C=CC(C)=CC1COC1OC(C)C(O)C(O)C1OC (stereo not shown) [Compound L4, 20-DH-DO-20-(hexahydroazepin-1-yl)lactenocin]	16 (≈ 19 µM)	6.25 (≈ 7.43 µM)	12.5 (≈ 14.9 µM)	12.5 (≈ 14.9 µM)	6.25 (≈ 7.43 µM)	25 (≈ 29.7 µM)	12.5 (≈ 14.9 µM)	1 (≈ 1.19 µM)	2 (≈ 2.38 µM)	16 (≈ 19 µM)	32 (≈ 38 µM)	> 128	16 (≈ 19 µM)	16 (≈ 19 µM)	1 (≈ 1.19 µM)	2 (≈ 2.38 µM)	> 128	2 (≈ 2.38 µM)	2 (≈ 2.38 µM)	> 128	MIC [8]: 1.56 µg/mL (≈ 1.85 µM); MIC [9]: 50 µg/mL (≈ 59.4 µM); MIC [10]: 1.56 µg/mL (≈ 1.85 µM); MIC [13, 28]: 8 µg/mL (≈ 9.51 µM); MIC [15, 29]: 2 µg/mL (≈ 2.38 µM); pKa ([22]; Titratable groups): 9.7; pKa [22, 30]: 8
CCC1OC(=O)CC(O)C(C)C(OC2OC(C)C(OC3CC(C)(O)C(O)C(C)O3)C(N(C)C)C2O)C(CCN2CCCCCCC2)CC(C)C(=O)C=CC(C)=CC1COC1OC(C)C(O)C(OC)C1OC (stereo not shown) [Compound T6, 20-DH-DO-20-(octahydroazocin-1-yl)tylosin]	> 128	50 (≈ 49.3 µM)	> 50	3.12 (≈ 3.08 µM)	12.5 (≈ 12.3 µM)	50 (≈ 49.3 µM)	> 50	2 (≈ 1.97 µM)	4 (≈ 3.95 µM)	> 128	> 128	> 128	> 128	64 (≈ 63.2 µM)	2 (≈ 1.97 µM)	8 (≈ 7.89 µM)	> 128	4 (≈ 3.95 µM)	4 (≈ 3.95 µM)	> 128	MIC [8]: 0.78 µg/mL (≈ 0.77 µM); MIC [9]: > 50 µg/mL; MIC [10]: 12.5 µg/mL (≈ 12.3 µM); ED50 ([27]; C203, Oral): 44 mg/kg; ED50 ([27]; C203, sc, Subcutaneous): > 10 mg/kg; MIC [13, 28]: 8 µg/mL (≈ 7.89 µM); MIC [15, 29]: 4 µg/mL (≈ 3.95 µM)
CCC1OC(=O)CC(O)C(C)C(OC2OC(C)C(OC3CC(C)(O)C(O)C(C)O3)C(N(C)C)C2O)C(CCN2CC3CCC(CC3)C2)CC(C)C(=O)C=CC(C)=CC1COC1OC(C)C(O)C(OC)C1OC (stereo not shown) [Compound T13, 20-DH-DO-20-(3-azabicyclo[3.2.2]nonan-3-yl)tylosin]	> 128	50 (≈ 48.8 µM)	> 50	1.56 (≈ 1.52 µM)	6.25 (≈ 6.1 µM)	50 (≈ 48.8 µM)	> 50	2 (≈ 1.95 µM)	4 (≈ 3.9 µM)	128 (≈ 125 µM)	128 (≈ 125 µM)	> 128	> 128	128 (≈ 125 µM)	4 (≈ 3.9 µM)	8 (≈ 7.8 µM)	> 128	4 (≈ 3.9 µM)	4 (≈ 3.9 µM)	> 128	MIC [8]: 1.56 µg/mL (≈ 1.52 µM); MIC [9]: > 50 µg/mL; MIC [10]: 25 µg/mL (≈ 24.4 µM); ED50 ([27]; C203, Oral): 30 mg/kg; ED50 ([27]; C203, sc, Subcutaneous): > 10 mg/kg; MIC ([13]; Streptococcus pneumoniae): 16 µg/mL (≈ 15.6 µM); MIC ([15]; Staphylococcus epidermidis, EPI1): 4 µg/mL (≈ 3.9 µM)
